This is an account of results in PubChem BioAssay AID1419 (Emory University Molecular Libraries Screening Center, 2008).

For orientation: IC50 means the concentration at which inhibition is half-maximal.

A short description of this experiment: EBV protein-peptide binding inhibitors, dose response, biochemical, fluorescence polarization (AID 1419). The settings on record: cell-free protein-peptide binding, 2 h; for fold change: measured here: P channel fold over control, at 54 µM. In general terms: Fluorescence polarisation rises when a labelled molecule tumbles more slowly, as on binding a larger partner.

Activity calls are given as the source filed them. The rule behind the calls is not given here.

With `COc1ccc(OC)c2c1C(=O)c1ccccc1C2=O`, the IC50 is below 0.42 µM and the fold change came to 41.6.
As to `Cc1ccc(-c2cn3nc(-c4ccccc4)c(-c4ccccc4)nc3n2)cc1`, the IC50 was 1.31 µM and the fold change turned out to be 37.6.
As for `COc1ccc(/C=C2\N=C(c3c(-c4ccccc4)noc3C)OC2=O)cc1OC`, the IC50 was 15.9 µM and the fold change was 3.56.
For `CC(=O)Oc1ccc2c(c1)Oc1cc(OC(C)=O)ccc1C21OC(=O)c2ccccc21`, the half-inhibitory concentration (IC50) was below 0.42 µM and the fold change was 23.1.
`COc1ccccc1N1C(C)=CC(=C(C#N)c2nc3ccccc3s2)C=C1C`: the 50% inhibitory concentration (IC50) is 9.03 µM and the fold change was 27.7.
For `CCOC(=O)C1CCN(C(=O)Nc2ccc3nc(-c4ccco4)c(-c4ccco4)nc3c2)CC1`, the half-maximal inhibitory concentration (IC50) was 5.89 µM and the fold change turned out to be 2.82.
For `Cc1ccc(N2C(=O)C3C(C(=O)c4ccccc4)=NN(c4ccccc4)C3C2=O)cc1` (stereo unspecified), the 50% inhibitory concentration (IC50) is 7.31 µM and the fold change worked out at 8.5.
Regarding `O=C(Nc1ccc(-n2cnnn2)cc1)C1CCC1`, the IC50 is > 54 µM (inactive) and the fold change worked out at 0.983.
As to `O=C(N=Nc1ccc(NOC(=O)c2ccccc2Br)cc1)c1ccccc1O`, the IC50 is > 54 µM (inactive) and the fold change was 0.957.
Take `Nc1ccc2c3c(cccc13)C(=O)N(c1ccccc1)C2=O`: the half-inhibitory concentration (IC50) was below 0.42 µM and the fold change is 200.
For `COc1ccc(N=Nc2nc3cc(Br)c(Br)cc3n2C)c(OC)c1`, the 50% inhibitory concentration (IC50) was 2.95 µM and the fold change was 5.37.
As for `CCOC(=O)c1c(Nc2ccccc2N)cc(C)nc1C`, the IC50 is > 54 µM (inactive) and the fold change was 0.997.
The corresponding values for `CSc1c(C#N)c(N)nc2sc(C(=O)c3ccc(Cl)c(Cl)c3)c(N)c12` are 1.74 µM and 9.22.
For the compound `COC(=O)c1cc2c(-c3ccccc3)cc3ccccn3c-2c1C(=O)OC`, the IC50 was 27 µM and the fold change was 1.65.
In the case of `CN(C)c1ccc(/C=N/NC(=O)c2cnc3ccccc3c2)cc1`, the IC50 was 18.6 µM and the fold change was 3.11.
Turning to `COc1ccc(CCNC(=O)COc2nsnc2N2CCOCC2)cc1OC`, the IC50 was > 54 µM (inactive) and the fold change is 1.22.
For the compound `COc1ccccc1NC(=O)CC(c1ccc(OC(C)C)cc1)c1ccccc1OC` (stereo unspecified), the IC50 is > 54 µM (inactive) and the fold change is 0.927.
`O=C1NC(=O)[C@@H]2C3c4ccccc4C=CN3[C@H](C(=O)c3cccs3)[C@H]12` (stereo partly specified): the half-maximal inhibitory concentration (IC50) is 4.84 µM and the fold change came out at 3.36.
As to `COc1ccc(NC(=O)c2sc3nc(-c4cccnc4)ccc3c2N)cc1`, the concentration for half-maximal inhibition (IC50) is 2.44 µM and the fold change came out at 6.91.
The corresponding values for `COc1ccc(S(=O)(=O)c2c(N)n(Cc3ccco3)c3nc4ccccc4nc23)cc1` are 9.62 µM and 1.74.
For `COc1ccc(OC)c(C2C3CN(C(C)C)CC=C3C(C#N)=C(N)C2(C#N)C#N)c1` (stereo unspecified), the IC50 is 5.91 µM and the fold change turned out to be 3.96.
In the case of `C=CCN1CC(c2nc3ccccc3n2CCOc2ccccc2)CC1=O` (stereo unspecified), the IC50 is 34.2 µM (inactive) and the fold change was determined as 1.08.
Regarding `CCOC(=O)C(=O)/C(=C\N(C)C)c1onc(-c2ccccc2)c1C(=O)OC`, the IC50 is > 54 µM (inactive) and the fold change was 1.05.
Consider `COC(=O)CN1C(=O)N(c2ccccc2)C(N(O)C(=O)Nc2ccccc2)C1(C)C` (stereo unspecified), for which the IC50 was > 54 µM (inactive) and the fold change is 1.
Regarding `COC(=O)c1cc2c(C)cc3ccc(C)cn3c-2c1C(=O)OC`, the half-maximal inhibitory concentration (IC50) was 9.57 µM and the fold change was 4.48.
On to `CCc1ccc(NC(=O)c2ccc3ncsc3c2)cc1`, for which the IC50 is > 54 µM (inactive) and the fold change was determined as 0.87.
`CC1(C)CC(=O)C2=C(C1)OC(N)=C(C#N)C2c1cc2c(cc1[N+](=O)[O-])OCO2` (stereo unspecified): the IC50 was 2.04 µM and the fold change was determined as 3.34.
The corresponding values for `O=C(C1=NN(c2ccccc2)C2C(=O)N(c3ccccc3)C(=O)C12)c1ccccc1` (stereo unspecified) are 6.24 µM and 3.88.
As for `O=C(Nc1cccc([N+](=O)[O-])c1)c1cnccn1`, the IC50 was > 54 µM (inactive) and the fold change was found to be 1.09.
As for `CCOC(=O)c1[nH]cnc1N=Nc1c(O)ccc2ccccc12`, the half-inhibitory concentration (IC50) was 7.35 µM and the fold change was determined as 2.68.
In the case of `CC(=O)c1ccc(N2C(=O)C3C(C2=O)C(C(=O)c2ccc(Cl)cc2)N2CCCC32)cc1` (stereo unspecified), the IC50 was 7.19 µM and the fold change stood at 8.74.
With `CN1CC=C2C(C#N)=C(N)C(C#N)(C#N)C(c3cccc(Cl)c3Cl)C2C1` (stereo unspecified), the concentration for half-maximal inhibition (IC50) was 1.44 µM and the fold change was 7.33.
`O=c1[nH]c(Nc2ccccc2)cc2ccccc12`: the IC50 is 2.02 µM and the fold change was determined as 2.34.
`CC(C)c1cc(=O)oc2c3c4c(cc12)CCCN4CCC3`: the IC50 is 1.88 µM and the fold change was 5.95.
For `CN1CCCc2cc3c(C(F)(F)F)cc(=O)oc3nc21`, the IC50 is below 0.42 µM and the fold change turned out to be 18.4.
With `COc1ccc(-c2csc(NC(=O)CSc3nc(C)nc4sc(C(=O)O)c(C)c34)n2)cc1`, the IC50 is > 54 µM (inactive) and the fold change is 0.987.
With `CC(C)(C)NC(=O)c1sccc1C(=O)O`, the IC50 is > 54 µM (inactive) and the fold change was 1.06.
`CN1C=CC2=C(C#N)C(N)C(C#N)(C#N)C(c3ccccc3)C2C1` (stereo unspecified): the half-inhibitory concentration (IC50) was 4.53 µM and the fold change was found to be 3.69.
Consider `CCOc1ccc(N/C=C/C(=O)c2ccc(OC)cc2)c([N+](=O)[O-])c1`, for which the concentration for half-maximal inhibition (IC50) was 4.13 µM and the fold change amounted to 2.81.
For `COc1cccc(Nc2ncccc2C(=O)NCc2ccccc2)c1`, the IC50 is 2.59 µM and the fold change worked out at 3.14.
On the same counts, the results for `O=C(CSc1nnc(SCc2ccccc2)s1)N/N=C/C=C\c1ccco1` are > 54 µM (inactive) and 1.04.
Regarding `O=c1ccc2cc3c4c(c2o1)CCCN4CCC3`, the IC50 is below 0.42 µM and the fold change worked out at 36.4.
Turning to `Cn1nc([N+](=O)[O-])c(C(C#N)c2nc3ccccc3n2C)c(Cl)c1=O` (stereo unspecified), the 50% inhibitory concentration (IC50) is 2.39 µM and the fold change was 2.35.
In the case of `Cc1ccnc(N2C(=O)c3cccc4c([N+](=O)[O-])ccc(c34)C2=O)c1`, the IC50 is 3.48 µM and the fold change was found to be 2.33.
With `COc1cc(C2CC(C(F)(F)F)n3ncc(C(=O)O)c3N2)cc(OC)c1OC` (stereo unspecified), the IC50 was > 54 µM (inactive) and the fold change worked out at 0.997.
For `Cn1c(SCC(=O)Nc2ccc3nc(SCC(=O)N4CCCC4)sc3c2)nnc1-c1ccc(N)cc1`, the IC50 is 36.4 µM (inactive) and the fold change worked out at 1.12.
The corresponding values for `Cc1nc(Cl)c2c(n1)NC1=C(O2)C(=O)CCC1` are 0.86 µM and 22.3.
`CCOC(=O)c1ccc(N2C(=O)C3C(C2=O)C(C(=O)c2ccc(Cl)cc2)N2CCCC32)cc1` (stereo unspecified): the IC50 was 2.54 µM and the fold change stood at 5.32.
`COc1ccc(C(=O)c2sc3nc(C)cc(-c4cccs4)c3c2N)cc1`: the IC50 was 10.9 µM and the fold change was determined as 10.2.
As for `Nc1ccc(N)c(C(=O)O)c1`, the half-inhibitory concentration (IC50) was 3.76 µM and the fold change stood at 2.6.
Take `CCN(CC)CCN1C(=O)c2cccc3cc(N)cc(c23)C1=O`: the IC50 was 3.39 µM and the fold change was determined as 3.91.
In the case of `Cn1c(=O)[nH]c2cc(Cl)cnc21`, the concentration for half-maximal inhibition (IC50) was 7.23 µM and the fold change came to 2.34.
As to `CCCCNc1c2c3c(cccc3n(C)c1=O)C(=O)c1ccccc1-2`, the IC50 is below 0.42 µM and the fold change is 150.
As to `Cc1ccc(C(=O)NN2C(=O)/C(=C/c3cn(C)c4ccccc34)SC2=S)cc1`, the half-inhibitory concentration (IC50) is 3.42 µM and the fold change was 6.95.
In the case of `CC(=O)c1ccc(NC(=O)CSc2ccsc2[N+](=O)[O-])cc1`, the IC50 was > 54 µM (inactive) and the fold change is 1.06.
Consider `CC(=O)n1c(C=Nc2ccc(Cl)cc2)c(O)c2ccccc21`, for which the IC50 is 1.09 µM and the fold change worked out at 31.8.
On the same counts, the results for `COC(=O)c1c(=O)n(O)c2ccc(OC)cc2[n+]1[O-]` are 4.69 µM and 2.93.
The corresponding values for `O=C(OCCN1C(=O)c2cccc3c(N4CCOCC4)ccc(c23)C1=O)c1ccccc1Cl` are 2.87 µM and 65.4.
On the same counts, the results for `O=C(COc1ccc(/C=N/NC(=O)c2ccc(O)cc2)cc1)Nc1ccc([N+](=O)[O-])cc1` are 2.97 µM and 0.957.
For the compound `C=CCc1cccc(C=Nc2cc(Br)ccc2O)c1O`, the IC50 is 5.72 µM and the fold change was 27.4.
The corresponding values for `CN(C)c1ncnc2c1NC1=C(S2)C(=NCCCC(=O)O)CC(C)(C)C1` are 5.71 µM and 3.35.
On to `O=C(CSc1ccsc1[N+](=O)[O-])Nc1cc(F)ccc1F`, for which the IC50 was > 54 µM (inactive) and the fold change worked out at 1.05.
On the same counts, the results for `Cc1ccc(-c2nc(SCC(=O)Nc3ccccc3OC(F)F)c3c(C)c(C(=O)O)sc3n2)cc1` are 18.2 µM and 1.05.
For `CCN1/C(=C2\SC(=S)N(Cc3ccccc3)C2=O)Sc2ccccc21`, the IC50 was > 54 µM (inactive) and the fold change is 2.96.
The corresponding values for `CC(C)(C)c1ccc(C(=O)Nc2cccc3c(=O)[nH][nH]c(=O)c23)cc1` are 5.97 µM and 3.72.
Take `CCN(CC)c1ccc2cc(S(=O)(=O)c3ccc(Cl)cc3)c(=O)oc2c1`: the IC50 was 6.12 µM and the fold change was 98.4.
The corresponding values for `CCc1cccc2cc3c(N)c(C(=O)Nc4ccc(S(=O)(=O)N5CCCC5)cc4)sc3nc12` are 1.63 µM and 8.07.
The corresponding values for `Nn1c(Cc2ccccc2F)nnc1SCC(=O)N1CC(=O)Nc2ccccc21` are > 54 µM (inactive) and 1.
